According to publication PMC5927115 (Japanese Journal of Cancer Research : Gann, 2002):
pIC50: −log10 of the molar value. Where two headings read alike, the source gives them in different places.

Assays:
EGFR [1] = details: cited from earlier work
[2] = tested on: receptor for fibroblast growth factor; details: ATP-binding site of the catalytic domain; cited from earlier work
v-Src [3] = biological target: T1, v-Src (Rous sarcoma virus, UniProt P00524); details: cited from earlier work
v-Src [4] = biological target: T1, v-Src; assay: PTK activity of immunopurified v-Src, 32P incorporation into Raytide; assay type: biochemical; details: for mode of inhibition of v-Src with respect to ATP: various ATP concentrations
PTK = assay type: biochemical; details: SR-3Y1 lysate
protein kinase A = assay: Simultaneous protein kinase detection in SR-3Y1 lysate: protein kinase A bands; assay type: biochemical
[5] = biological target: eukaryotic elongation factor-2 kinase, and calmodulin-dependent protein kinase III (Rattus norvegicus, UniProt P70531); assay: Simultaneous protein kinase detection in SR-3Y1 lysate: eEF-2K, CaMK III bands; assay type: biochemical
topoisomerases I = details: cited from earlier work
KDR/Flk-1 = KDR/Flk-1 (Homo sapiens, UniProt P35968); assay: PTK activity in KDR/Flk-1-NIH3T3 cells; assay type: cell-based
protein kinase C = assay: Simultaneous protein kinase detection in SR-3Y1 lysate: protein kinase C bands; assay type: biochemical
sarcoma 180 tumor cells = details: mice implanted with sarcoma 180 tumor cells; cited from earlier work
topoisomerases II = details: cited from earlier work
[6] = tested on: 37 lines of cancer cells derived from human solid tumors; assay: Cell death in panel of 37 lines of cancer cells derived from human solid tumors; assay type: cell-based; details: 37 human solid tumor lines, 48 h
EGFR [7] = biological target: EGFR (Homo sapiens, UniProt P00533); assay: PTK; assay type: biochemical
NCI-H522 = assay: Cell death in human cancer cell line panel; assay type: cell-based; details: NCI-H522 lung cancer cells, 48 h
A431 cells = assay: Cell-growth inhibition of carcinoma A431 cells; assay type: cell-based; details: Homo sapiens, A-431, read-out: IC50 for cell-growth inhibition
HL-60 cells = details: cited from earlier work
DMS114 = assay: Cell death in human cancer cell line panel; assay type: cell-based; details: DMS114 lung cancer cells, 48 h
[8] = biological target: catalytic subunit of protein kinase A (Bos taurus, UniProt P00517); assay: Activity of isolated catalytic subunit of protein kinase A; assay type: biochemical, bovine; details: treatment with as much as 100 M; results not shown
Flt-1 = Flt-1 (Homo sapiens, UniProt P17948); assay: PTK activity in Flt-1-overexpressing NIH3T3 cells; assay type: cell-based
SR-3Y1 cells = assay: Cell-growth inhibition of SR-3Y1 cells; assay type: cell-based; details: SR3Y1, read-out: IC50 for cell-growth inhibition

T1 sequence (P00524 2-526): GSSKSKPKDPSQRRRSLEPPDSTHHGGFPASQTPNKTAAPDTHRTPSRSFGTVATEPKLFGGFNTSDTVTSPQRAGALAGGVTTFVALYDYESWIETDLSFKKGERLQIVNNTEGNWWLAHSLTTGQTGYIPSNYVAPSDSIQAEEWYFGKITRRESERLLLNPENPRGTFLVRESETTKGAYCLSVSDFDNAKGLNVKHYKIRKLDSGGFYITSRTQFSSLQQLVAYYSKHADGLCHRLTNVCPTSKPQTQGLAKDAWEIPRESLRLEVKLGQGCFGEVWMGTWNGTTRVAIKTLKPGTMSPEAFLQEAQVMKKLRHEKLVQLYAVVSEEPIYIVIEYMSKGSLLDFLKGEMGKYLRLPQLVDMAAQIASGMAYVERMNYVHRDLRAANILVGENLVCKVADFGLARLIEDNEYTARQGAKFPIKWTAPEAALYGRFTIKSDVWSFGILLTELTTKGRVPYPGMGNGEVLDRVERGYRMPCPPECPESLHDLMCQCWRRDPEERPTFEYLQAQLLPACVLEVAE
EGFR (Homo sapiens, UniProt P00533), sequence (P00533 25-1210, looked up): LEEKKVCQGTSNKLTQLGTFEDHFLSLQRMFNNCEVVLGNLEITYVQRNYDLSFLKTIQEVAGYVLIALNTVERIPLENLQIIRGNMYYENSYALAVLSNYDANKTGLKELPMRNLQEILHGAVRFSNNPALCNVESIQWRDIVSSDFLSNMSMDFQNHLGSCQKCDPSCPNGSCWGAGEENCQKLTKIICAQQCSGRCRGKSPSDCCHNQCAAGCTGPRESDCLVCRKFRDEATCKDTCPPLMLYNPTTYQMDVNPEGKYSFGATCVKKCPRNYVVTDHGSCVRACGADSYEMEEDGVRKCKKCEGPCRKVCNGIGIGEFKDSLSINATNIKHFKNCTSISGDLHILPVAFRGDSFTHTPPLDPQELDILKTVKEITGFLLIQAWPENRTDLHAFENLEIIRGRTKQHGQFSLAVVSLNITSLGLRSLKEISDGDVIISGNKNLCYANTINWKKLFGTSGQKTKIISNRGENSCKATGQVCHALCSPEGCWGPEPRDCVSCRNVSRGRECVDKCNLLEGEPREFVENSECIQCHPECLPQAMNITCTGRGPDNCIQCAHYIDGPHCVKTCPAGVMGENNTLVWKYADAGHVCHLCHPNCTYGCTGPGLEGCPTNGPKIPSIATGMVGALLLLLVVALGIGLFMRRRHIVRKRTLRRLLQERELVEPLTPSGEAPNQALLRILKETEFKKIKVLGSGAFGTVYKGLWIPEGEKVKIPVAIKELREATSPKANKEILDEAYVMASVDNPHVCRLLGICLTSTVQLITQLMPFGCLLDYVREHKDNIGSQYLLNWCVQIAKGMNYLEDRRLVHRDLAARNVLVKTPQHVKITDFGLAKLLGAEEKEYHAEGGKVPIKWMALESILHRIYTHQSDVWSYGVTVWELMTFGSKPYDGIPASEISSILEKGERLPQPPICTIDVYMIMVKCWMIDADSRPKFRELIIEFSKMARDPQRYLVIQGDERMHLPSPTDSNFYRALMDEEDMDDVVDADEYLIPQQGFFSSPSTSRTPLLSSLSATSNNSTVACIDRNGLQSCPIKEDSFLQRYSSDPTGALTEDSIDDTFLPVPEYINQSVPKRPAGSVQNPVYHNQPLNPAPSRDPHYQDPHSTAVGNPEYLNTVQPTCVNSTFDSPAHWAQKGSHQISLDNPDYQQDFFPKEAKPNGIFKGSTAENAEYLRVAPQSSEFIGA
KDR/Flk-1, sequence (P35968 20-1356): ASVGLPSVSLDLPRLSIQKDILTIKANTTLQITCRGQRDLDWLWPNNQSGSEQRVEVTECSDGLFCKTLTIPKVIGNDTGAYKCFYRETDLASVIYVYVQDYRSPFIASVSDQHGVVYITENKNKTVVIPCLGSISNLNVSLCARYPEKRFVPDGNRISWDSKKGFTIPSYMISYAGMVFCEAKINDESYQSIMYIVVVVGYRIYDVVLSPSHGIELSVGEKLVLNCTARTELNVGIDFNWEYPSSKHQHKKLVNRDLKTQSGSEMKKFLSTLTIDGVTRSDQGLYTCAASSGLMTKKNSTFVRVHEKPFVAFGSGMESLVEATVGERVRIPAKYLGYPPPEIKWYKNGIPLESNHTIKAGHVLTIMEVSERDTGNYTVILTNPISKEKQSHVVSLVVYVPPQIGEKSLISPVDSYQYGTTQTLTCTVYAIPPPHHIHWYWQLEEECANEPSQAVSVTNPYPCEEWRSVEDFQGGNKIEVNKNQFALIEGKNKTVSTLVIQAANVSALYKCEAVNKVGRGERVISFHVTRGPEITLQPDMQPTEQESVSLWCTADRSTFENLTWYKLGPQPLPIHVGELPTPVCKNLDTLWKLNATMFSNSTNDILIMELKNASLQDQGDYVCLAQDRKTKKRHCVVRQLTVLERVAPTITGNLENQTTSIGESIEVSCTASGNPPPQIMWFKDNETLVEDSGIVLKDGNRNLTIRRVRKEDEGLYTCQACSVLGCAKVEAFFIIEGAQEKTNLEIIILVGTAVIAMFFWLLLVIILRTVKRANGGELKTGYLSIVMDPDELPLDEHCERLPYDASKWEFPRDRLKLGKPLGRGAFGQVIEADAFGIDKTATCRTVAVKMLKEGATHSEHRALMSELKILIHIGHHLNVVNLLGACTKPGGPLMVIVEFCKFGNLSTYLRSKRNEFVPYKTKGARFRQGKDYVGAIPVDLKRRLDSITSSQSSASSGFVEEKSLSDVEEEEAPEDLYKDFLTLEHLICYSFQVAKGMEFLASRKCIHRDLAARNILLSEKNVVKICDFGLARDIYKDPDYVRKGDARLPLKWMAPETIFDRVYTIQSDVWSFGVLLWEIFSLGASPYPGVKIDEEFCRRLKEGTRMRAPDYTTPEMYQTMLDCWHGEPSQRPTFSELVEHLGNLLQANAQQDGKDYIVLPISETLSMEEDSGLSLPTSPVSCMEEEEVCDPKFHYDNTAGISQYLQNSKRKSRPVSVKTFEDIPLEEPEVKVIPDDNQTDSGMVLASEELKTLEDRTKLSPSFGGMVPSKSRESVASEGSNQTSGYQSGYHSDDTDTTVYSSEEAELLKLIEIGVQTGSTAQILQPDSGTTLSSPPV
eukaryotic elongation factor-2 kinase, and calmodulin-dependent protein kinase III, sequence (P70531 2-724): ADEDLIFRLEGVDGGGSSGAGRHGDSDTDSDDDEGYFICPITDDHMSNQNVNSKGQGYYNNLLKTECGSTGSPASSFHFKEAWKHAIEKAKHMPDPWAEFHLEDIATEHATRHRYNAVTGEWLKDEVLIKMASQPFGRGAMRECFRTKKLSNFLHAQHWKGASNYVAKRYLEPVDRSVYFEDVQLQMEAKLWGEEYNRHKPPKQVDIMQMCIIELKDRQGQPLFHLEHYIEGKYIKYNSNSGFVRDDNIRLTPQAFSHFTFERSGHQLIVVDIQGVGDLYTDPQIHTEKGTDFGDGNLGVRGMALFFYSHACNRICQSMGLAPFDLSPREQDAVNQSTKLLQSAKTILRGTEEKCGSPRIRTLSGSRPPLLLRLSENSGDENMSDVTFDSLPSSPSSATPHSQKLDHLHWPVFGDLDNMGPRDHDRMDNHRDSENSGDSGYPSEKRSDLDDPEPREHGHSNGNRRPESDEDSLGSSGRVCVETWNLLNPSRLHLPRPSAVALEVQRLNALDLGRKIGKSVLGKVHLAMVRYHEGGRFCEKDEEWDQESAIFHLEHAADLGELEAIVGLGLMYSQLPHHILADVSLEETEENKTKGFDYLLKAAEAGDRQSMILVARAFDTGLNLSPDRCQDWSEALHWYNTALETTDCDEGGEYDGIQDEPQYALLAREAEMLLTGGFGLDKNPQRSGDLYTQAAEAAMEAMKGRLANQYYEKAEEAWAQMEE
Flt-1, sequence (P17948 27-1338, species assumed): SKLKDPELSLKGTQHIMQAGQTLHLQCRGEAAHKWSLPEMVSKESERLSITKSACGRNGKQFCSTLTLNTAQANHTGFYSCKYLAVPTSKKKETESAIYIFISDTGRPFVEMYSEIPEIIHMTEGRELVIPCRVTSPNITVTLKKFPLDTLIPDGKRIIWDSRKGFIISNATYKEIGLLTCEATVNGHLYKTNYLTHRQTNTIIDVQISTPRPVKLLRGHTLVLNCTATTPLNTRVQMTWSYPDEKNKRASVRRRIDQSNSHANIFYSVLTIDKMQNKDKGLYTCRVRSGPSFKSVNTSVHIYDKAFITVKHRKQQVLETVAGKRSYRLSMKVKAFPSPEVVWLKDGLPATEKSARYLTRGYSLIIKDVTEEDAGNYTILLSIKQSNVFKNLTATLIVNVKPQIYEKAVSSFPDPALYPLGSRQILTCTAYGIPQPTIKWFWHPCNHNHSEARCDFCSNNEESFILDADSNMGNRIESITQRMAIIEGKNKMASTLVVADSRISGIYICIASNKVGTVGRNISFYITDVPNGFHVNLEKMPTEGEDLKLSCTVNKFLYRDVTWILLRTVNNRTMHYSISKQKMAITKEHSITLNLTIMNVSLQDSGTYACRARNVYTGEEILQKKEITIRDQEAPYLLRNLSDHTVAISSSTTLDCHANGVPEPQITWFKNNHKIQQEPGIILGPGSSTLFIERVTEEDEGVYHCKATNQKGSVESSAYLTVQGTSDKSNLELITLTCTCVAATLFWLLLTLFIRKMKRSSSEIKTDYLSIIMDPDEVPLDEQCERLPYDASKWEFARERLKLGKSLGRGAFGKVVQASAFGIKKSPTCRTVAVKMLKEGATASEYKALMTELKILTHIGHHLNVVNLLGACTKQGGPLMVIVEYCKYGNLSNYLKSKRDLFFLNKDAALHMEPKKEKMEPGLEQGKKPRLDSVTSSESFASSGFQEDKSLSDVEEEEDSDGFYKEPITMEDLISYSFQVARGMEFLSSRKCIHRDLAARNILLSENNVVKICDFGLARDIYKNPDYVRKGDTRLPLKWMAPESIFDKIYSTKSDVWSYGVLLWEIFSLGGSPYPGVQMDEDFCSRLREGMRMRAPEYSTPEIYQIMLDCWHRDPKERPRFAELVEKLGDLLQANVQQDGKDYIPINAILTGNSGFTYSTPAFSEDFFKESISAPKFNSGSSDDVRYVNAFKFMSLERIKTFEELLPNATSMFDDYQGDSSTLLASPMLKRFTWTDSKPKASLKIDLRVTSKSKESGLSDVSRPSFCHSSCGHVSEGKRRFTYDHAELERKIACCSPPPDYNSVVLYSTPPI

CNc1cc2c(Nc3cccc(Br)c3)ncnc2cn1 [PD158780, 4‐[(3‐bromophenyl)amino]‐6‐(methylamino)‐pyrido[3,4‐d]pyrimidine]
mode of inhibition of PTK activity of EGFR with respect to ATP (EGFR [1]): competition with ATP

Cc1[nH]c(/C=C2\C(=O)Nc3ccccc32)c(C)c1CCC(=O)O [SU6668]
mode of inhibition of receptor for fibroblast growth factor with respect to ATP [2]: compete with ATP

O=CN/C=C/c1cc(O)ccc1O [erbstatin]
mode of inhibition of PTK activity of EGFR with respect to ATP (EGFR [1]): competition with ATP

O=c1c(-c2ccc(O)cc2)coc2cc(O)cc(O)c12 [genistein]
mode of inhibition of PTK activity of EGFR with respect to ATP (EGFR [1]): competition with ATP

O=C(O)c1cc(N(Cc2ccccc2O)Cc2cc(O)ccc2O)ccc1O [lavendastin-A]
mode of inhibition of PTK activity of EGFR with respect to ATP (EGFR [1]): competition with ATP

O=c1c(O)c(-c2ccc(O)c(O)c2)oc2cc(O)cc(O)c12 [quercetin]
mode of inhibition of v-Src with respect to ATP (v-Src [3]): competition with ATP
pIC50 (v-Src [3]; read-out: IC50 on v-Src): 5.52

CC(C)=CC[C@@H](O)C1=CC(=O)c2c(O)ccc(O)c2C1=O [shikonin, reference compound]
PTK activity of v-Src remaining in the presence of inhibitor (v-Src [4]; lowest level reached over concentrations tested (Fig. 5)): ≥ 50%
intensities of bands of proteins phosphorylated by PTK (PTK): decreased markedly
intensities of bands of proteins phosphorylated by protein kinase A (protein kinase A): not significantly altered
intensities of bands of proteins phosphorylated by eEF-2 kinase and CaMK III [5]: not significantly altered
inhibition of topoisomerase I activity (topoisomerases I): inhibit
inhibition of PTK activity of KDR/Flk-1 (in words) (KDR/Flk-1; KDR/Flk-1-NIH3T3 cells): inhibited significantly
intensities of bands of proteins phosphorylated by protein kinase C (protein kinase C): not significantly altered
antitumor activity (sarcoma 180 tumor cells): exhibits antitumor activity
inhibition of topoisomerase II activity (topoisomerases II): inhibit
induction of cell death across the panel [6]: induced cell death in a wide variety of tumor cell lines
IC50 for EGFR (EGFR [7]; EGFR isolated from A431 cells, estimated from Fig. 4B): impossible to estimate
concentration required for inhibition of the PTK activity of EGFR (EGFR [7]; Fig. 4A): more than 10 M

CC(C)=CC[C@@H](OC(=O)CC(C)(C)O)C1=CC(=O)c2c(O)ccc(O)c2C1=O [β‐HIVS, β‐Hydroxyisovalerylshikonin]
pIC50 (v-Src [4]): ~6.00
inhibition of tyrosine kinase activity of v-Src (in words) (v-Src [4]): strongly inhibited
mode of inhibition of v-Src with respect to ATP (v-Src [4]; Lineweaver-Burk, 1 and 10 M inhibitor): non‐competitive
mode of inhibition of v-Src with respect to ATP (v-Src [4]; Lineweaver-Burk, 1 and 10 M inhibitor, listed as -HIVS): did not compete with ATP
mode of inhibition of v-Src with respect to substrate Raytide (v-Src [4]; Lineweaver-Burk, various Raytide concentrations, 1 and 10 M inhibitor): competitively inhibited
intensities of bands of proteins phosphorylated by PTK (PTK): decreased markedly
intensities of bands of proteins phosphorylated by protein kinase A (protein kinase A): not significantly altered
intensities of bands of proteins phosphorylated by eEF-2 kinase and CaMK III [5]: not significantly altered
induction of cell-death (NCI-H522): efficiently induced cell-death
pIC50 (A431 cells): ~4.96
pIC50 (KDR/Flk-1): ~5.60
concentration needed to inhibit the tyrosine kinase activity of KDR/Flk-1 (KDR/Flk-1; KDR/Flk-1-NIH3T3 cells): more than 1 M
inhibition of PTK activity of KDR/Flk-1 (in words) (KDR/Flk-1; KDR/Flk-1-NIH3T3 cells): weakly inhibited
inhibition of PTK activity of KDR/Flk-1 (in words) (KDR/Flk-1; KDR/Flk-1-NIH3T3 cells, listed as -HIVS): inhibited significantly
intensities of bands of proteins phosphorylated by protein kinase C (protein kinase C): not significantly altered
induction of apoptosis (HL-60 cells): induced apoptosis
induction of cell-death (DMS114): efficiently induced cell-death
change in activity of catalytic subunit of protein kinase A [8]: practically no change
pIC50 (Flt-1): < 5.30
pIC50 (SR-3Y1 cells): ~5.92
pIC50 (EGFR [7]): ~6.15
inhibition of tyrosine kinase activity of EGFR (in words) (EGFR [7]): strongly inhibited
inhibition of tyrosine phosphorylation of EGFR (EGFR [7]): evident
